Reference: ChEMBL document CHEMBL1201861, “Genomics of Drug Sensitity in Cancer screening data, Wellcome Trust Sanger Institute”

Assays:
Assay in all cases: cells
Assay type in all cases: functional, cell-based
Conditions in all cases: Homo sapiens
[1] = test system: RKO;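 note: growth inhibition of human RKO cells, read out with a cell viability assay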
Description: SANGER: Inhibition of human RKO cell growth in a cell viability assay.

[2] = test system: ES7;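 note: growth inhibition of cultured human ES7 cells, read out as cell viability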
Description: SANGER: Inhibition of human ES7 cell growth in a cell viability assay.

[3] = test system: CGTH-W-1;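 note: growth inhibition of human CGTH-W-1 cells measured by cell viability assay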
Description: SANGER: Inhibition of human CGTH-W-1 cell growth in a cell viability assay.

[4] = test system: IA-LM;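 note: cell viability assay measuring growth inhibition of human IA-LM cells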
Description: SANGER: Inhibition of human IA-LM cell growth in a cell viability assay.

[5] = test system: RCC10RGB;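 note: growth inhibition of human RCC10RGB cells, read out by a cell viability assay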
Description: SANGER: Inhibition of human RCC10RGB cell growth in a cell viability assay.

[6] = test system: DSH1;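 note: growth inhibition of human DSH1 cells, measured with a cell viability readout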
Description: SANGER: Inhibition of human DSH1 cell growth in a cell viability assay.

[7] = test system: NCI-H1092;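 note: cell growth inhibition measured with a cell viability assay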
Description: SANGER: Inhibition of human NCI-H1092 cell growth in a cell viability assay.

[8] = test system: MZ7-mel;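 note: growth inhibition of human MZ7-mel cells, measured by a cell viability assay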
Description: SANGER: Inhibition of human MZ7-mel cell growth in a cell viability assay.

[9] = test system: Ramos-2G6-4C10;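 note: growth inhibition of the cell line, measured by a cell viability read-out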
Description: SANGER: Inhibition of human Ramos-2G6-4C10 cell growth in a cell viability assay.

[10] = test system: TE-9;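 note: cell growth inhibition, measured with a cell viability readout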
Description: SANGER: Inhibition of human TE-9 cell growth in a cell viability assay.

[11] = test system: EW-1;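 note: growth inhibition of the human EW-1 cell line, read out by a cell viability assay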
Description: SANGER: Inhibition of human EW-1 cell growth in a cell viability assay.

[12] = test system: MFM-223
Description: SANGER: Inhibition of human MFM-223 cell growth in a cell viability assay.

[13] = test system: HT-144
Description: SANGER: Inhibition of human HT-144 cell growth in a cell viability assay.

[14] = test system: A101D;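 note: growth inhibition of the cell line, measured with a viability assay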
Description: SANGER: Inhibition of human A101D cell growth in a cell viability assay.

[15] = test system: MZ1-PC;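 note: cell viability assay measuring growth inhibition of human MZ1-PC cells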
Description: SANGER: Inhibition of human MZ1-PC cell growth in a cell viability assay.

[16] = test system: HC-1;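 note: growth inhibition of HC-1 cells measured by a cell viability assay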
Description: SANGER: Inhibition of human HC-1 cell growth in a cell viability assay.

[17] = test system: LB373-MEL-D;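 note: growth inhibition of the cell line, read out in a cell viability assay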
Description: SANGER: Inhibition of human LB373-MEL-D cell growth in a cell viability assay.

[18] = test system: OCUB-M;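 note: growth inhibition of the cancer cell line, read out through a cell viability assay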
Description: SANGER: Inhibition of human OCUB-M cell growth in a cell viability assay.

[19] = test system: LB771-HNC;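 note: growth inhibition of LB771-HNC human cells, read out with a cell viability assay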
Description: SANGER: Inhibition of human LB771-HNC cell growth in a cell viability assay.

[20] = test system: 697
Description: SANGER: Inhibition of human 697 cell growth in a cell viability assay.

[21] = test system: NCI-H1838;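 note: growth inhibition of NCI-H1838 cells, determined with a cell viability readout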
Description: SANGER: Inhibition of human NCI-H1838 cell growth in a cell viability assay.

[22] = test system: OVCAR-4;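 note: growth inhibition of human OVCAR-4 cells, measured with a cell viability assay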
Description: SANGER: Inhibition of human OVCAR-4 cell growth in a cell viability assay.

[23] = test system: NCI-H82;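 note: growth inhibition of NCI-H82 cells, measured with a cell viability readout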
Description: SANGER: Inhibition of human NCI-H82 cell growth in a cell viability assay.

[24] = test system: 8-MG-BA;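 note: growth inhibition of 8-MG-BA cells, read out with a cell viability assay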
Description: SANGER: Inhibition of human 8-MG-BA cell growth in a cell viability assay.

[25] = test system: NCI-H226;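 note: cell viability read-out used to gauge growth inhibition of the cells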
Description: SANGER: Inhibition of human NCI-H226 cell growth in a cell viability assay.

[26] = test system: UACC-257
Description: SANGER: Inhibition of human UACC-257 cell growth in a cell viability assay.

[27] = test system: SNU-5;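 note: cell viability readout used to measure growth inhibition in human NCI-SNU-5 cells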
Description: SANGER: Inhibition of human NCI-SNU-5 cell growth in a cell viability assay.

[28] = test system: KMOE-2;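 note: growth inhibition of human KMOE-2 cells, read out with a cell viability assay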
Description: SANGER: Inhibition of human KMOE-2 cell growth in a cell viability assay.

[29] = test system: LS-513
Description: SANGER: Inhibition of human LS-513 cell growth in a cell viability assay.

[30] = test system: HT
Description: SANGER: Inhibition of human HT cell growth in a cell viability assay.

[31] = test system: K562
Description: SANGER: Inhibition of human K-562 cell growth in a cell viability assay.

[32] = test system: ES1;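 note: growth inhibition of ES1 cells, read out with a cell viability assay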
Description: SANGER: Inhibition of human ES1 cell growth in a cell viability assay.

[33] = test system: CCRF-CEM;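 note: inhibition of CCRF-CEM cell growth, measured by a cell viability assay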
Description: SANGER: Inhibition of human CCRF-CEM cell growth in a cell viability assay.

[34] = test system: DB
Description: SANGER: Inhibition of human DB cell growth in a cell viability assay.

[35] = test system: SF-268;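 note: growth inhibition of SF-268 cells determined with a cell viability assay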
Description: SANGER: Inhibition of human SF268 cell growth in a cell viability assay.

[36] = test system: KARPAS-299
Description: SANGER: Inhibition of human KARPAS-299 cell growth in a cell viability assay.

[37] = test system: NCI-H446;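 note: growth inhibition of NCI-H446 cells determined by a cell viability assay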
Description: SANGER: Inhibition of human NCI-H446 cell growth in a cell viability assay.

[38] = test system: BB30-HNC;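 note: growth inhibition of the cultured cell line, read out by a cell viability assay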
Description: SANGER: Inhibition of human BB30-HNC cell growth in a cell viability assay.

[39] = test system: LAN-6;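 note: growth inhibition of LAN-6 cells, determined with a cell viability assay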
Description: SANGER: Inhibition of human LAN-6 cell growth in a cell viability assay.

[40] = test system: MC116;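 note: growth inhibition of MC116 cells, read out with a cell viability assay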
Description: SANGER: Inhibition of human MC116 cell growth in a cell viability assay.

[41] = test system: NCI-H1650;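 note: growth inhibition of human NCI-H1650 cells measured by a cell viability assay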
Description: SANGER: Inhibition of human NCI-H1650 cell growth in a cell viability assay.

[42] = test system: BT-474
Description: SANGER: Inhibition of human BT-474 cell growth in a cell viability assay.

[43] = test system: LB2518-MEL;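 note: growth inhibition of human LB2518-MEL cells, measured with a cell viability assay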
Description: SANGER: Inhibition of human LB2518-MEL cell growth in a cell viability assay.

[44] = test system: NMC-G1;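 note: growth inhibition of the NMC-G1 cell line, measured with a cell viability read-out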
Description: SANGER: Inhibition of human NMC-G1 cell growth in a cell viability assay.

[45] = test system: LOX IMVI
Description: SANGER: Inhibition of human LOXIMVI cell growth in a cell viability assay.

[46] = test system: NH-12;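 note: growth inhibition of NH-12 cells, read out with a cell viability assay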
Description: SANGER: Inhibition of human NH-12 cell growth in a cell viability assay.

[47] = test system: NB5;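 note: growth inhibition of NB5 cells, read out as cell viability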
Description: SANGER: Inhibition of human NB5 cell growth in a cell viability assay.

[48] = test system: PSN1;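 note: suppression of growth of human PSN1 cells, read out by a cell viability assay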
Description: SANGER: Inhibition of human PSN1 cell growth in a cell viability assay.

[49] = test system: TE-6;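 note: growth inhibition of TE-6 cells, read out with a cell viability assay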
Description: SANGER: Inhibition of human TE-6 cell growth in a cell viability assay.

[50] = test system: TE-10;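 note: growth inhibition of TE-10 cells, measured by a cell viability assay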
Description: SANGER: Inhibition of human TE-10 cell growth in a cell viability assay.

[51] = test system: RPMI-8226
Description: SANGER: Inhibition of human RPMI-8226 cell growth in a cell viability assay.

[52] = test system: TE-8;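 note: growth inhibition of TE-8 cells, measured with a cell viability readout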
Description: SANGER: Inhibition of human TE-8 cell growth in a cell viability assay.

[53] = test system: LC-2-ad;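 note: growth inhibition of human LC-2-ad cells, read out with a cell viability assay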
Description: SANGER: Inhibition of human LC-2-ad cell growth in a cell viability assay.

[54] = test system: LU-139
Description: SANGER: Inhibition of human LU-139 cell growth in a cell viability assay.

[55] = test system: SK-UT-1;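 note: growth inhibition of SK-UT-1 cells, measured by a cell viability assay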
Description: SANGER: Inhibition of human SK-UT-1 cell growth in a cell viability assay.

[56] = test system: LXF-289 cell line
Description: SANGER: Inhibition of human LXF-289 cell growth in a cell viability assay.

[57] = test system: MLMA;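 note: growth inhibition of MLMA cells (human), determined through a cell viability readout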
Description: SANGER: Inhibition of human MLMA cell growth in a cell viability assay.

[58] = test system: OCI-AML2;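 note: growth inhibition of OCI-AML2 cells, read out with a cell viability assay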
Description: SANGER: Inhibition of human OCI-AML2 cell growth in a cell viability assay.

[59] = test system: NB6;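 note: growth inhibition of NB6 cells, read out by a cell viability assay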
Description: SANGER: Inhibition of human NB6 cell growth in a cell viability assay.

[60] = test system: MMAC-SF;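 note: growth inhibition of human MMAC-SF cells, read out with a cell viability assay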
Description: SANGER: Inhibition of human MMAC-SF cell growth in a cell viability assay.

[61] = test system: Mo
Description: SANGER: Inhibition of human Mo-T cell growth in a cell viability assay.

[62] = test system: GR-ST
Description: SANGER: Inhibition of human GR-ST cell growth in a cell viability assay.

[63] = test system: BE-13;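 note: growth inhibition of human BE-13 cells, measured with a cell viability assay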
Description: SANGER: Inhibition of human BE-13 cell growth in a cell viability assay.

[64] = test system: NCI-H1304;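 note: growth inhibition of the cancer cell line, measured in a cell viability assay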
Description: SANGER: Inhibition of human NCI-H1304 cell growth in a cell viability assay.

[65] = test system: SK-PN-DW;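 note: growth inhibition measured with a viability assay on these cells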
Description: SANGER: Inhibition of human SK-PN-DW cell growth in a cell viability assay.

[66] = test system: SNU-C2B;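 note: cell viability readout used to measure compound-driven suppression of SNU-C2B cell proliferation, IC50 marking half-maximal growth inhibition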
Description: SANGER: Inhibition of human SNU-C2B cell growth in a cell viability assay.

## CCNc1cc(N[C@H]2CC[C@@H](O)CC2)nc(Nc2ccc3c(ccn3Cc3ccccc3)c2)n1
[1]
  IC50: 4.72 µM
[2]
  IC50: > 5.12 µM
[3]
  IC50: > 5.12 µM
[4]
  IC50: > 5.12 µM
[5]
  IC50: > 5.12 µM
[6]
  IC50: > 5.12 µM
[7]
  IC50: > 5.12 µM
[8]
  IC50: > 5.12 µM
[9]
  IC50: > 5.12 µM
[10]
  IC50: > 5.12 µM
[11]
  IC50: > 5.12 µM
[12]
  IC50: > 5.12 µM
[13]
  IC50: > 5.12 µM
[14]
  IC50: > 5.12 µM
[15]
  IC50: > 5.12 µM
[16]
  IC50: > 5.12 µM
[17]
  IC50: > 5.12 µM
[18]
  IC50: > 5.12 µM
[19]
  IC50: > 5.12 µM
[20]
  IC50: 4.17 µM
[21]
  IC50: > 5.12 µM
[22]
  IC50: > 5.12 µM
[23]
  IC50: > 5.12 µM
[24]
  IC50: > 5.12 µM
[25]
  IC50: > 5.12 µM
[26]
  IC50: > 5.12 µM
[27]
  IC50: > 5.12 µM
[28]
  IC50: > 5.12 µM
[29]
  IC50: > 5.12 µM
[30]
  IC50: > 5.12 µM
[31]
  IC50: > 5.12 µM
[32]
  IC50: > 5.12 µM
[33]
  IC50: > 5.12 µM
[34]
  IC50: > 5.12 µM
[35]
  IC50: > 5.12 µM
[36]
  IC50: > 5.12 µM
[37]
  IC50: > 5.12 µM
[38]
  IC50: 4.6 µM
[39]
  IC50: > 5.12 µM
[40]
  IC50: > 5.12 µM
[41]
  IC50: > 5.12 µM
[42]
  IC50: > 5.12 µM
[43]
  IC50: > 5.12 µM
[44]
  IC50: > 5.12 µM
[45]
  IC50: > 5.12 µM
[46]
  IC50: > 5.12 µM
[47]
  IC50: > 5.12 µM
[48]
  IC50: > 5.12 µM
[49]
  IC50: > 5.12 µM
[50]
  IC50: 4.39 µM
[51]
  IC50: > 5.12 µM
[52]
  IC50: > 5.12 µM
[53]
  IC50: 0.702 µM
[54]
  IC50: > 5.12 µM
[55]
  IC50: > 5.12 µM
[56]
  IC50: > 5.12 µM
[57]
  IC50: > 5.12 µM
[58]
  IC50: > 5.12 µM
[59]
  IC50: > 5.12 µM
[60]
  IC50: > 5.12 µM
[61]
  IC50: > 5.12 µM
[62]
  IC50: > 5.12 µM
[63]
  IC50: > 5.12 µM
[64]
  IC50: > 5.12 µM
[65]
  IC50: > 5.12 µM
[66]
  IC50: > 5.12 µM

## C/C(O)=C(\C#N)C(=O)Nc1cc(Br)ccc1Br
[1]
  IC50: > 16 µM
[2]
  IC50: > 16 µM
[3]
  IC50: > 16 µM
[4]
  IC50: > 16 µM
[5]
  IC50: > 16 µM
[6]
  IC50: > 16 µM
[7]
  IC50: > 16 µM
[8]
  IC50: > 16 µM
[9]
  IC50: > 16 µM
[10]
  IC50: > 16 µM
[11]
  IC50: > 16 µM
[12]
  IC50: > 16 µM
[13]
  IC50: > 16 µM
[14]
  IC50: > 16 µM
[15]
  IC50: > 16 µM
[16]
  IC50: > 16 µM
[17]
  IC50: > 16 µM
[18]
  IC50: > 16 µM
[19]
  IC50: > 16 µM
[20]
  IC50: > 16 µM
[21]
  IC50: > 16 µM
[22]
  IC50: > 16 µM
[23]
  IC50: > 16 µM
[24]
  IC50: > 16 µM
[25]
  IC50: > 16 µM
[26]
  IC50: > 16 µM
[27]
  IC50: > 16 µM
[28]
  IC50: > 16 µM
[29]
  IC50: > 16 µM
[30]
  IC50: > 16 µM
[31]
  IC50: > 16 µM
[32]
  IC50: > 16 µM
[33]
  IC50: > 16 µM
[34]
  IC50: > 16 µM
[35]
  IC50: > 16 µM
[36]
  IC50: > 16 µM
[37]
  IC50: > 16 µM
[38]
  IC50: > 16 µM
[39]
  IC50: > 16 µM
[40]
  IC50: > 16 µM
[41]
  IC50: > 16 µM
[42]
  IC50: > 16 µM
[43]
  IC50: > 16 µM
[44]
  IC50: > 16 µM
[45]
  IC50: > 16 µM
[46]
  IC50: > 16 µM
[47]
  IC50: > 16 µM
[48]
  IC50: > 16 µM
[49]
  IC50: > 16 µM
[50]
  IC50: > 16 µM
[51]
  IC50: > 16 µM
[52]
  IC50: > 16 µM
[53]
  IC50: > 16 µM
[54]
  IC50: > 16 µM
[55]
  IC50: > 16 µM
[56]
  IC50: > 16 µM
[57]
  IC50: > 16 µM
[58]
  IC50: > 16 µM
[59]
  IC50: > 16 µM
[60]
  IC50: > 16 µM
[61]
  IC50: > 16 µM
[62]
  IC50: > 16 µM
[63]
  IC50: > 16 µM
[64]
  IC50: > 16 µM
[65]
  IC50: > 16 µM
[66]
  IC50: > 16 µM
